# Literature values, collected in article PMC8136953 (Veterinary Medicine and Science, 2020).
# Parameters: method as in Park et al., 2006
# Conditions: ref Park et al., 2006; cited from earlier work
smiles,measurement,value
"CS(=O)(=O)c1ccc([C@@H](O)[C@H](N)CF)cc1 [FLO amine, florfenicol amine]",Antibacterial activity,virtually lacks antibacterial activity
